Experiments:
[1] = target: Human immunodeficiency virus type 1 reverse transcriptase (Human immunodeficiency virus 1, UniProt Q72547); assay: Inhibition of wild type HIV1 reverse transcriptase by scintillation proximity assay
[2] = test system: Human immunodeficiency virus 1; assay: Antiviral activity against HIV1 infected in human C8166 cells assessed as inhibition of viral replication after 3 days by ELISA; type: functional, organism-based; details: Human immunodeficiency virus 1, C8166, 72 h
[3] = test system: Human immunodeficiency virus 1; assay: Antiviral activity against HIV1 with transcriptase […] mutation infected in human C8166 cells assessed as inhibition of viral replication after 3 days by ELISA; type: functional, organism-based; details: Human immunodeficiency virus 1, C8166, 72 h

Cc1ccc(-n2nnnc2SCC(=O)Nc2ccc(-c3ccc(OCC(=O)O)cc3)cc2Cl)c(Cl)c1
IC50 [1]: 0.0019 µM

Cc1[nH]nc(OCC(=O)Nc2ccc(-c3ccc(CC(=O)O)cc3)cc2Cl)c1-c1ccc(C(C)(C)C)cc1Cl
IC50 [1]: 2.09 µM

Cc1ccc(-n2cc(C)nc2SCC(=O)Nc2ccccc2Cl)c(Cl)c1
IC50 [1]: > 1 µM

Cc1[nH]nc(OCC(=O)Nc2ccc(C#CC(C)(C)C(=O)O)cc2Cl)c1-c1ccc(C(C)(C)C)cc1Cl
EC50 [2]: 3.88 µM
IC50 [1]: 2.4 µM
EC50 [3]: 0.073 µM

Cc1ccc(-c2ccccc2OCC(=O)Nc2ccc(-c3ccc(CC(=O)O)cc3)cc2Cl)c(Cl)c1
IC50 [1]: 0.177 µM

Cc1ccc(-c2c(SCC(=O)Nc3ccc(-c4ccc(CC(=O)O)cc4)cc3Cl)cnn2C)c(Cl)c1
IC50 [1]: 0.0019 µM

Cc1ccc(-c2c(SCC(=O)Nc3ccc(-c4ccc(OCC(=O)O)cc4)cc3Cl)ccn2C)c(Cl)c1
IC50 [1]: > 1 µM

Cc1ccc(-n2c(C)cnc2SCC(=O)Nc2ccc(-c3ccc(CC(=O)O)cc3)cc2Cl)c(Cl)c1
IC50 [1]: 0.0095 µM

Cc1ccc(-c2nnsc2SCC(=O)Nc2ccc(-c3ccc(CC(=O)O)cc3)cc2Cl)c(Cl)c1
IC50 [1]: 0.002 µM

Cc1ccc(-c2ncsc2SCC(=O)Nc2ccc(-c3ccc(CC(=O)O)cc3)cc2Cl)c(Cl)c1
IC50 [1]: 0.2 µM

C/C(=C/CCC(=O)Nc1ccc(-c2ccc(OCC(=O)O)cc2)cc1Cl)c1ccc(C)cc1Cl
IC50 [1]: 0.015 µM

C/C(=C\CCC(=O)Nc1ccc(-c2ccc(OCC(=O)O)cc2)cc1Cl)c1ccc(C)cc1Cl
IC50 [1]: 0.272 µM

Cc1ccc(-c2ncoc2SCC(=O)Nc2ccc(-c3ccc(CC(=O)O)cc3)cc2Cl)c(Cl)c1
IC50 [1]: 0.365 µM

CC(C)(C)c1ccc(-c2c[nH]nc2OCC(=O)Nc2ccc(-c3ccc(CC(=O)O)cc3)cc2Cl)c(Cl)c1
EC50 [2]: 4.87 µM
IC50 [1]: > 3.3 µM
EC50 [3]: 0.444 µM

Cc1ccc(-n2nccc2SCC(=O)Nc2ccc(-c3ccc(CC(=O)O)cc3)cc2Cl)c(Cl)c1
IC50 [1]: 0.0079 µM

Cc1ccc(-n2ncc(C)c2SCC(=O)Nc2ccc(-c3ccc(CC(=O)O)cc3)cc2Cl)c(Cl)c1
IC50 [1]: > 10 µM

Cc1ccc(-n2nccc2OCC(=O)Nc2ccc(-c3ccc(CC(=O)O)cc3)cc2Cl)c(Cl)c1
IC50 [1]: 0.018 µM

Cc1ccc(-c2ccccc2SCC(=O)Nc2ccc(-c3ccc(CC(=O)O)cc3)cc2Cl)c(Cl)c1
IC50 [1]: 0.018 µM

Cc1ccc(-n2nncc2SCC(=O)Nc2ccc(-c3ccc(CC(=O)O)cc3)cc2Cl)c(Cl)c1
IC50 [1]: 0.0024 µM

Cc1[nH]nc(OCC(=O)Nc2ccc(C#CC(C)(C)CO)cc2Cl)c1-c1ccc(C(C)(C)C)cc1Cl
EC50 [2]: > 5 µM
IC50 [1]: > 3.33 µM
EC50 [3]: 0.177 µM

C/C(=C/CCC(=O)Nc1ccc(-c2ccc(CC(=O)O)cc2)cc1Cl)c1ccc(C)cc1Cl
IC50 [1]: 0.0024 µM
